For orientation: IC50 means the concentration that gives 50% inhibition.

Read-outs that look alike come from different tables or passages of the source.

Assay [1] has as its target full-length human BTK (Homo sapiens (Human), UniProt Q06187). Put plainly: BTK IC50 enzyme assay (microfluidic off-chip mobility shift kinase assay). It is filed as biochemical. The settings on record: incubated for 90 min. at 27 C; read-out: Time Dependent BTK Enzyme Assay IC50. Put shortly:
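Off-chip microfluidic mobility shift assay on full-length human BTK; substrate-to-product conversion measured by charge/mass separation of phosphorylated peptide after reaction stop.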

Assay [2] concerns the target BTK (Homo sapiens (Human), UniProt Q06187). The experiment in a line: Time Dependent Human Whole Blood IC50 assay. It counts as cell-based. On the procedure: Compounds described by embodiments of the present invention were assayed using a human whole blood assay. The data from the same is recorded in Table 2 within the column labeled: “Time Dependent Human Whole Blood BTK Enzyme Assay IC50”.

The test system of assay [3] is PBMC. Put plainly: Time Dependent PBMC IC50 assay. It counts as cell-based. On the procedure:
Compounds described by embodiments of the present invention were assayed using a time dependent PMBC assay.

Assay [4] has as its system NZB/W F1 mice. The experiment in a line: Interferon-alpha accelerated systemic lupus erythematosus (SLE) mouse model. The settings on record: oral, daily from day 14, 0.1, 0.3, 1, or 3 mg/kg; NZB/W F1 mice with ADV-IFN-α. It is filed as in vivo. On the procedure:
1-(4-(((6-amino-5-(4-phenoxyphenyl)pyrimidin-4-yl)amino)methyl)piperidin-1-yl)prop-2-en-1-one, designated as “CPD. B”, was evaluated in an interferon-alpha accelerated SLE mouse model. NZB/W F1 mice received i.v. injection at day 0 and day 1 of 10^8 infectious units of adenovirus (ADV-IFN-α) to deliver a transient overexpression on interferon alpha. Oral dosing of the different group treatments was initiated on day 14 and continued daily at 24 hour intervals until the end of the study. Treatment groups consisted of 20% Kleptose HPB in Na-citrate buffer (vehicle) or 0.1, 0.3, 1, or 3 mg/kg of Cpd. […] As shown in Panel 1B Cpd. […] FIG. 2 presents data from another interferon-alpha accelerated SLE experiment in mice. NZB/W F1 mice received i.v. injections at day 0 and day 1 of 10^8 infectious units of adenovirus (ADV-IFN-α) to deliver a transient overexpression on interferon alpha. Oral dosing of the different group treatments (n=10) was initiated on day 14 and continued daily at 24 hour intervals until the end of the study. Treatment groups consisted of 20% Kleptose HPB in Na-citrate buffer (vehicle), 0.1, 0.3, 1, or 3 mg/kg of Cpd. B or Cell Cept®. […] Statistical analysis was performed using Two way ANOVA with Bonferroni post test with all groups compared to vehicle treated group (*=p<0.05, **=p<0.01, ***=p<0.001).

[5] abbreviates: human whole blood, read-out: Time Dependent Human Whole Blood BTK Enzyme Assay IC50.

full-length human BTK, sequence (Q06187 whole entry): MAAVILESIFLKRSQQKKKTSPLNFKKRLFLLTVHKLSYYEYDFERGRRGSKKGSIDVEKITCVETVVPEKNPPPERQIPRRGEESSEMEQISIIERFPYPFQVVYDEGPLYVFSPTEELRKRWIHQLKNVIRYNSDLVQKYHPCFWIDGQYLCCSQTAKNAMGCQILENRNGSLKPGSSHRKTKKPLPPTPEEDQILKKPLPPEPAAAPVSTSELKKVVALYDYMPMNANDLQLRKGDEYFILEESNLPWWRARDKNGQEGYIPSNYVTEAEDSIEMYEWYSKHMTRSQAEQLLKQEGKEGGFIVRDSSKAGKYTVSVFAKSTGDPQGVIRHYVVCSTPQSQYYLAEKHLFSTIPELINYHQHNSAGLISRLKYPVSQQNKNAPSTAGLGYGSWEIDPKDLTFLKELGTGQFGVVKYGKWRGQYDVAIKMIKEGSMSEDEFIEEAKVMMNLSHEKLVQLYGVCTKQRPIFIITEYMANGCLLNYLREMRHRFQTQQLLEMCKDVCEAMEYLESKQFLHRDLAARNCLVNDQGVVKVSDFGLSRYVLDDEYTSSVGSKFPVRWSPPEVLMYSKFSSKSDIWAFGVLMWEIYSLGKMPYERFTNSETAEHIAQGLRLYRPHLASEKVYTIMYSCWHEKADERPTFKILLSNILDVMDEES
BTK, sequence (Q06187 whole entry): as above

As to `C=CC(=O)Nc1cccc(Nc2ncnc(N)c2-c2ccc(Oc3ccccc3)cc2)c1` [A3, N-(3-((6-amino-5-(4-phenoxyphenyl)pyrimidin-4-yl)amino)phenyl)acrylamide], the IC50 was less than 100 nM in assay [1], less than 1000 nM in assay [2] (setting [5]) and less than 1000 nM in assay [3].

Take `C=CC(=O)Nc1cc(Oc2ncnc(N)c2-c2ccc(Oc3ccccc3)cc2)c(F)cc1F` [A251, N-(5-((6-amino-5-(4-phenoxyphenyl)pyrimidin-4-yl)oxy)-2,4-difluorophenyl)acrylamide]: the half-inhibitory concentration (IC50) in assay [1] was less than 100 nM; in assay [2] (setting [5]), less than 1000 nM; in assay [3], less than 1000 nM.

For `C=CC(=O)Nc1ccc(F)c(Oc2ncnc(N)c2-c2ccc(Oc3ccccc3)cc2)c1` [A246, N-(3-((6-amino-5-(4-phenoxyphenyl)pyrimidin-4-yl)oxy)-4-fluorophenyl)acrylamide], the IC50 in assay [1] is less than 100 nM; in assay [2] (setting [5]) it was less than 1000 nM; in assay [3], less than 1000 nM.

On to `C=CC(=O)N1C2CCC1CC(CNc1ncnc(N)c1-c1ccc(Oc3ccccc3)cc1)C2` (centres unmarked) [A48, 1-(3-(((6-amino-5-(4-phenoxyphenyl)pyrimidin-4-yl)amino)methyl)-8-azabicyclo[3.2.1]octan-8-yl)prop-2-en-1-one], for which the values for the half-inhibitory concentration (IC50) in assay [1] and in assay [2] were less than 100 nM and greater than 1000 nM, respectively.

For `CC#CC(=O)N1CC[C@@H](Nc2ncnc(N)c2-c2ccc(Oc3ccccc3)cc2)C1` [A341, (R)-1-(3-((6-amino-5-(4-phenoxyphenyl)pyrimidin-4-yl)amino)pyrrolidin-1-yl)but-2-yn-1-one], the IC50 is less than 100 nM in assay [1] and less than 1000 nM in assay [3].

Consider `CN(C)C/C=C/C(=O)Nc1cccc(Oc2ncnc(N)c2-c2ccc(Oc3ccccc3)cc2)c1` [A252, (E)-N-(3-((6-amino-5-(4-phenoxyphenyl)pyrimidin-4-yl)oxy)phenyl)-4-(dimethylamino)but-2-enamide], for which the IC50 in assay [1] was less than 100 nM; in assay [3], less than 1000 nM.

Consider `C#CC(=O)N[C@@H]1CCC[C@H](Nc2ncnc(N)c2-c2ccc(Oc3ccccc3)cc2)C1` (relative stereo) [A64, N-(cis-3-((6-amino-5-(4-phenoxyphenyl)pyrimidin-4-yl)amino)cyclohexyl)propiolamide], for which the IC50 is less than 100 nM in assay [1] and less than 1000 nM in assay [3].

Consider `C=CC(=O)N1CCC(CNc2ncnc(N)c2-c2ccc(Oc3ccccc3)nc2)CC1` [A168, 1-(4-(((6-amino-5-(6-phenoxypyridin-3-yl)pyrimidin-4-yl)amino)methyl)piperidin-1-yl)prop-2-en-1-one], for which the IC50 in assay [1] and in assay [3] was greater than 1000 nM throughout.

Turning to `C=CC(=O)N1CCC2(CC(Nc3ncnc(N)c3-c3ccc(Oc4ccccc4)cc3)C2)C1` (centres unmarked) [A113, 1-(2-((6-amino-5-(4-phenoxyphenyl)pyrimidin-4-yl)amino)-6-azaspiro[3.4]octan-6-yl)prop-2-en-1-one], the values for the IC50 in assay [1] and in assay [3] were less than 100 nM and less than 1000 nM, respectively.

Regarding `C=CC(=O)Nc1cccc(-c2c(N)ncnc2Oc2ccc(Oc3ccccc3)cc2)c1` [A245, N-(3-(4-amino-6-(4-phenoxyphenoxy)pyrimidin-5-yl)phenyl)acrylamide], the IC50 in assay [1] is less than 100 nM; in assay [3], less than 1000 nM.

For `CN(C)C/C=C/C(=O)N1CC2(CC(Nc3ncnc(N)c3-c3ccc(Oc4ccccc4)cc3)C2)C1` [A127, (E)-1-(6-((6-amino-5-(4-phenoxyphenyl)pyrimidin-4-yl)amino)-2-azaspiro[3.3]heptan-2-yl)-4-(dimethylamino)but-2-en-1-one], the values for the IC50 in assay [1] and in assay [3] were less than 100 nM and less than 1000 nM, respectively.

Regarding `C=CC(=O)Nc1cccc(Nc2ncnc(N)c2-c2cnn(Cc3ccccc3)c2)c1` [A70, N-(3-((6-amino-5-(1-benzyl-1H-pyrazol-4-yl)pyrimidin-4-yl)amino)phenyl)acrylamide], the half-inhibitory concentration (IC50) in assay [1] was less than 100 nM; in assay [3], less than 1000 nM.

Take `C=CC(=O)N1CC2(CC(Oc3ncnc(N)c3-c3ccc(Oc4ccccc4)cc3)C2)C1` [A120, 1-(6-((6-amino-5-(4-phenoxyphenyl)pyrimidin-4-yl)oxy)-2-azaspiro[3.3]heptan-2-yl) prop-2-en-1-one]: the IC50 in assay [1] was less than 100 nM; in assay [2] (setting [5]), less than 1000 nM; in assay [3] it was less than 1000 nM.

With `CN(C)C/C=C/C(=O)N1CC[C@@H](CNc2ncnc(N)c2-c2ccc(Oc3ccccc3)cc2)[C@H](O)C1` [A126, (E)-1-((3S,4S)-4-(((6-amino-5-(4-phenoxyphenyl)pyrimidin-4-yl)amino)methyl)-3-hydroxypiperidin-1-yl)-4-(dimethylamino)but-2-en-1-one], the figures for the IC50 in assay [1] and in assay [3] were less than 100 nM and less than 1000 nM, respectively.

For `C=CC(=O)N1CCC(CNc2ncnc(N)c2-c2ccc(Oc3ccccc3)cc2)(OC)CC1` [A121, 1-(4-(((6-amino-5-(4-phenoxyphenyl)pyrimidin-4-yl)amino)methyl)-4-methoxypiperidin-1-yl)prop-2-en-1-one], the IC50 in assay [1] is less than 100 nM; in assay [3] it was less than 1000 nM.

Regarding `C=CC(=O)N[C@H]1C[C@@H](Nc2ncnc(N)c2-c2ccc(Oc3ccccc3)cc2)C1` [A118], the IC50 was less than 100 nM in assay [1] and less than 1000 nM in assay [3].

`CN(C)C/C=C/C(=O)Nc1cccc(Oc2ccnc(N)c2-c2ccc(Oc3ccccc3)cc2)c1` [A151, (E)-N-(3-((2-amino-3-(4-phenoxyphenyl)pyridin-4-yl)oxy)phenyl)-4-(dimethylamino)but-2-enamide]: the figures for the IC50 in assay [1] and in assay [3] were less than 100 nM and greater than 1000 nM, respectively.

As for `C=CC(=O)N1CCC(COc2ncncc2-c2ccc(Oc3ccccc3)cc2)CC1` [A6, 1-(4-(((5-(4-phenoxyphenyl)pyrimidin-4-yl)oxy)methyl)piperidin-1-yl)prop-2-en-1-one], the IC50 in assay [1] was less than 100 nM; in assay [3], less than 1000 nM.

Consider `C=CC(=O)N1CC2(CC(Oc3ncnc(N)c3-c3cnn(Cc4ccccc4)c3)C2)C1` [A106, 1-(6-((6-amino-5-(1-benzyl-1H-pyrazol-4-yl)pyrimidin-4-yl)oxy)-2-azaspiro[3.3]heptan-2-yl)prop-2-en-1-one], for which the IC50 in assay [1] was less than 100 nM; in assay [3], greater than 1000 nM.

Consider `C=CC(=O)Nc1cccc(-c2cnc(N)nc2Oc2ccc(Oc3ccccc3)cc2)c1` [A306, N-(3-(2-amino-4-(4-phenoxyphenoxy)pyrimidin-5-yl)phenyl)acrylamide], for which the IC50 in assay [1] was less than 100 nM; in assay [3], less than 1000 nM.

With `C=CC(=O)Nc1cccc(Oc2ncnc(N)c2-c2ccc(C(=O)Nc3ccccc3)cc2)c1` [A258, 4-(4-(3-acrylamidophenoxy)-6-aminopyrimidin-5-yl)-N-phenylbenzamide], the figures for the IC50 in assay [1] and in assay [3] were less than 100 nM and greater than 1000 nM, respectively.

For the molecule `C=CC(=O)Nc1cccc(Oc2ncnc(N)c2-c2cnn(Cc3ccccc3)c2)c1` [A172, N-(3-((6-amino-5-(1-benzyl-1H-pyrazol-4-yl)pyrimidin-4-yl)oxy)phenyl)acrylamide], the values for the IC50 in assay [1], in assay [2] (setting [5]) and in assay [3] were less than 100 nM, less than 1000 nM and less than 1000 nM, respectively.

Turning to `C=CC(=O)N1CCC(CNc2ncnc(N)c2-c2ccc(Oc3ccccc3)cc2)CC1` [Cpd. B, 1-(4-(((6-amino-5-(4-phenoxyphenyl)pyrimidin-4-yl)amino)methyl)piperidin-1-yl)prop-2-en-1-one], the disease activity entry in assay [4] was “reduces the disease activity in a dose-dependent manner”.

Values taken from patent US9580449B2, “Compositions and methods for the production of pyrimidine and pyridine compounds with BTK inhibitory activity” (Merck Patent GmbH, priority 2011, dated 2017).
